Entries after “also recorded” stand apart in the source; their conditions may differ. Like-named read-outs stand apart in the source and are kept apart here.
Assays:
PARG [1] = target: T1, PARG (Homo sapiens, UniProt Q86W56); assay type: biochemical; settings: read-out: PARG Enzyme Activity
PARG [2] = target: T1, PARG; assay type: cell-based; settings: read-out: PARG Cell Assay
[3] = Mouse microsomal stability; assay type: in vitro ADME; settings: microsomes, read-out: Mouse Microsomes T1/2
[4] = Human liver microsomal stability; assay type: in vitro ADME; settings: liver microsomes, read-out: Human Microsomes T1/2
Text: Table 1 Improvements to metabolic stability through cyclopropyl modification. | column: Human Microsomes T1/2 (minutes)

[5] = In vivo pharmacokinetics in CD-1 mice; parameters: species or system mouse; settings: for In vivo half-life: initial in vivo PK studies; for Fold exposure relative to cell IC50: defined as [Cmax(free)]/Cell IC50
Experimental: (§1) Pharmacokinetics were studied in 6-8 week old male CD-1 mice following single intravenous or oral administration. Compounds were formulated as solutions comprising up to 10% DMSO with up to 10% Tween80 in saline at a concentration of approximately 1 mM. Doses were administered at 1 mg/kg (intravenous) or 5 mg/kg (oral gavage) unless otherwise stated. Blood samples were collected as dried blood spots (Agilent Bond Elut DMS cards) and assayed following solvent extraction using methanol, through a phospholipid removal plate (Phree phospholipid removal plates, Phenomenex) followed by LC-MS/MS analysis. The time-points for blood collection were as follows: oral (0.5, 1, 3, 5 and 24 h); intravenous (0.1, 0.25, 0.75, 2, 5 and 24 h). The resulting concentration-time data were analyzed by non-compartmental methods (PK Solver, Excel Add-In).

CD-1 mice = test: In vivo tolerability / toxicity observation during PK studies; parameters: species or system mouse; settings: for Toxicity Observed / Time of onset of ataxia after oral dosing: mice; for Tolerability in vivo: oral doses from 5 mg/kg to 160 mg/kg; for Time of onset of ataxia after oral dosing: oral dosing arm, 5 mg/kg
Experimental: We therefore initiated a dose-escalation study to examine dose versus exposure of the compound. […] Our following study, with derivative 12, incorporated enhanced monitoring and here we observed the onset of ataxia shortly after the 5 h sampling time point, and exclusively in the oral dosing arm of the study, despite lower absolute and free drug exposures in these dosing arms.
as §1

[6] = Metabolite identification studies; assay type: in vitro ADME; settings: formed via removal of the cyclopropylmethyl moiety
Text: In an attempt to improve the in vivo PK profile, we undertook a series of metabolite identification studies, to determine the key sites of metabolism on 1 and 2.

[7] = geometric mean of at least two independent determinations
[8] = oral dose 5 (mg/kg), male CD-1 mice

T1 sequence (Q86W56 whole entry, species assumed): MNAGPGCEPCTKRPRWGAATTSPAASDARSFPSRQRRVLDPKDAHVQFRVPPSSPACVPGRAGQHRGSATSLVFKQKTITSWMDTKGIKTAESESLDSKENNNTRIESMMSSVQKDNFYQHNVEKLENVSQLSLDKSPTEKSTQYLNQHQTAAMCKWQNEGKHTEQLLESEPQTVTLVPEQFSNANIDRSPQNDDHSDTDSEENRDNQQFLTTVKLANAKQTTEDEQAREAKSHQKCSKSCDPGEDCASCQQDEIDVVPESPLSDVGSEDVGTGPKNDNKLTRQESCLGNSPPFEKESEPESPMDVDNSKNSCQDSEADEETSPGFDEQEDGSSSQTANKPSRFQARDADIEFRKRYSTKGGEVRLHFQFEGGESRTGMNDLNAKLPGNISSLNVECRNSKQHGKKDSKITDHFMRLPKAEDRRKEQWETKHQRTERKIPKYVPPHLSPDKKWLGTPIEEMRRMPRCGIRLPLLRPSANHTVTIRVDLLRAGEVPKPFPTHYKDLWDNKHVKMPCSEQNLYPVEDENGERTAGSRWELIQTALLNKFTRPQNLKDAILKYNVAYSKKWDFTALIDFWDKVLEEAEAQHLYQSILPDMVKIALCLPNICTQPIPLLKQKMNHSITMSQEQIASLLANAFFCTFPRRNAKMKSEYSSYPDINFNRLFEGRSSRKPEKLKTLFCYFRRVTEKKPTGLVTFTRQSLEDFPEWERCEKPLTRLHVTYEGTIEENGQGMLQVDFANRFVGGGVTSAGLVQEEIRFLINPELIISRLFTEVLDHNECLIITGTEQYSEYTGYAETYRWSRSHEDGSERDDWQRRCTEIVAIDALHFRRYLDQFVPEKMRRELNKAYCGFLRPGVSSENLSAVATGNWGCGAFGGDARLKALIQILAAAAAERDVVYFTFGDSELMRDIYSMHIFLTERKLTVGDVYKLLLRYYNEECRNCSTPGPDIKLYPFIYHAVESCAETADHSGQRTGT

SMILES | IC50 (PARG [1]; [7]) [µM] | IC50 (PARG [2]; [7]) [µM] | half-life [3] [min] | half-life [4] [min] | Fold exposure relative to cell IC50 [5, 8] | Toxicity Observed (CD-1 mice; oral dose 5 (mg/kg)) | also measured
Cn1cc(Cn2c(=O)c3cc(S(=O)(=O)NC4(C)CC4)ccc3n(Cc3ccn(C)n3)c2=O)cn1 [Compound 1] | 0.02 | 0.09 | 22 | 53 | 0.96 | No | In vivo half-life ([5]; in words): short half-lives; Fold exposure relative to cell IC50 ([5]; oral dose 160 (mg/kg), mice): 350; Toxicity Observed (CD-1 mice; oral dose 160 (mg/kg)): No; Tolerability in vivo (CD-1 mice): well tolerated; Major metabolite [6]: primary sulphonamides 3 and 4
Cc1cc(Cn2c(=O)c3cc(S(=O)(=O)NC4(C)CC4)ccc3n(C)c2=O)on1 [Compound 2] |  |  |  |  |  |  | In vivo half-life ([5]; in words): short half-lives; Tolerability in vivo (CD-1 mice): well tolerated; Major metabolite [6]: primary sulphonamides 3 and 4
Cn1cc(Cn2c(=O)c3cc(S(=O)(=O)NC4(CF)CC4)ccc3n(Cc3ccn(C)n3)c2=O)cn1 [Compound 5] | 0.02 | 0.17 | 37 | 82 | 0.18 | No | In vivo clearance ([5]; mice, in words): very rapidly cleared after oral dosing; also recorded: high clearance
Cn1cc(Cn2c(=O)c3cc(S(=O)(=O)NC4(C(F)F)CC4)ccc3n(Cc3ccn(C)n3)c2=O)cn1 [Compound 6] | 0.32 | 1.25 | 42 | 71 |  |  | 
Cn1cc(Cn2c(=O)c3cc(S(=O)(=O)NC4(C(F)(F)F)CC4)ccc3n(Cc3ccn(C)n3)c2=O)cn1 [Compound 7] | 3.6 | 4.1 | 38 | 102 |  |  | 
[2H]C([2H])([2H])C1(NS(=O)(=O)c2ccc3c(c2)c(=O)n(Cc2cnn(C)c2)c(=O)n3Cc2ccn(C)n2)CC1 [Compound 8] | 0.03 | 0.07 | 18 | 34 |  |  | 
CCn1c(=O)n(Cc2cnn(C)c2)c(=O)c2cc(S(=O)(=O)NC3(C)CC3)ccc21 [Compound 9] |  |  | 47 |  |  | No | 
CCn1c(=O)n(Cc2cnn(C)c2)c(=O)c2cc(S(=O)(=O)NC3(CF)CC3)ccc21 [Compound 10] |  |  | 102 |  | 15 | well tolerated and No | IC50 (PARG [1]): 0.1 µM; IC50 (PARG [2]): 0.08 µM; Toxicity Observed (CD-1 mice; oral dose 10 (dose-escalation study)): one animal was found dead on study; also recorded: liver toxicity was the probable cause of death
Cn1cc(Cn2c(=O)c3cc(S(=O)(=O)NC4(C)CC4)ccc3n(C)c2=O)cn1 [Compound 11] |  |  | 82 |  |  | No | 
Cn1cc(Cn2c(=O)c3cc(S(=O)(=O)NC4(CF)CC4)ccc3n(C)c2=O)cn1 [Compound 12] |  |  | 285 |  | 61 | Ataxia | IC50 (PARG [1]): 0.63 µM; IC50 (PARG [2]): 0.29 µM; Total exposure and Cmax relative to compound 1 ([5]; in vivo, mice): over four-fold lower; Time of onset of ataxia after oral dosing (CD-1 mice): > 5 h
CCn1c(=O)n(Cc2cc(C)on2)c(=O)c2cc(S(=O)(=O)NC3(CF)CC3)ccc21 [Compound 13] | 1.52 | 6.6 | 121 |  | 0.28 | Ataxia | Time of onset of ataxia after oral dosing (CD-1 mice): > 5 h

— article PMC6376317, “Fluoromethylcyclopropylamine derivatives as potential in vivo toxicophores – A cautionary disclosure” (Bioorganic & Medicinal Chemistry Letters, 2019)
